Assay: in vitro
Conditions: human, hela cells, % viability

| Compound | viability at 28.5 h, 10 µM [%] |
| --- | --- |
| Cc1cc(C(=O)NCCn2ccnc2C)c2cccc(Cl)c2n1 [CBK282460] | 95.6 |
| CNC(=O)c1ccc(-n2ccnc2)c(-n2cccc2)c1 [CBK282461] | 80.8 |
| CCCc1cc(CNC(=O)c2cnn(-c3ccc(F)cc3)c2)on1 [CBK282463] | 86.6 |
| CCCc1cc(C(=O)NC2(CN3CCCC3)CCCCC2)[nH]n1 [CBK282464] | 98.1 |
| CCCc1cc(C(=O)NC2CCN(Cc3cccc(F)c3)CC2)[nH]n1 [CBK282465] | 100 |
| CCCN1CCC(CNC(=O)c2cnn(-c3ccc(F)cc3)c2)CC1 [CBK282466] | 112 |
| CCCc1cc(C(=O)NC(C)(C)CN2CCCC(C)C2)[nH]n1 (stereo not shown) [CBK282467] | 89.1 |
| Cc1ccccc1C1(O)CCN(CC(O)c2ccc(F)cc2)CC1 (stereo not shown) [CBK282471] | 87.7 |
| Cc1nc2ccc(C(=O)NCC3CCCN(C(C)C)C3)cc2[nH]1 (stereo not shown) [CBK282475] | 90 |
| Cc1nc2ccc(C(=O)NCCCc3ccccn3)cc2s1 [CBK282478] | 88.2 |
| Cc1ccc(C2(CN3CCN(CC4CCOC4)CC3)CC2)cc1 (stereo not shown) [CBK282479] | 86.1 |
| Cc1ccc(CN(CCCN(C)C)Cc2nccn2C)o1 [CBK282481] | 105 |
| C=C(C)Cn1nc(C)c(CN(C)CCN2CCCCC2)c1C [CBK282483] | 88.7 |
| Cn1cc(CCCC(=O)NC2CCCOC2)c2ccccc21 (stereo not shown) [CBK282486] | 81.8 |
| CC1CCN(CC(O)c2ccc3c(c2)CCCN3C(=O)C2CC2)CC1 (stereo not shown) [CBK282488] | 96.9 |
| OC(CN1CCC(O)(c2ccc(F)cc2)CC1)c1ccccc1 (stereo not shown) [CBK282489] | 104 |
| OC(CN1CCC(O)(c2ccccc2F)CC1)c1ccccc1 (stereo not shown) [CBK282490] | 107 |
| Cc1ccccc1C1(O)CCN(CC(O)c2ccccc2)CC1 (stereo not shown) [CBK282491] | 83.7 |
| OC(CN1CCC(O)(c2ccccc2F)CC1)c1ccc(F)cc1 (stereo not shown) [CBK282492] | 87.2 |
| COc1cccc(CN(Cc2ccco2)Cc2cnc(C)n2C)c1 [CBK282494] | 93.6 |
| COc1cccc(CN(Cc2ncc[nH]2)Cc2ccco2)c1 [CBK282496] | 98.7 |
| O=C(NCCC(c1ccccc1)c1ccco1)C1CCCN1 (stereo not shown) [CBK282499] | 85 |
| CCc1c(C(=O)NCc2cc(C3CC3)[nH]n2)[nH]c2ccc(F)cc12 [CBK282501] | 76.3 |
| CC(=O)c1cn(CCC(=O)NC2CCCN(C)C2)c2ccccc12 (stereo not shown) [CBK282503] | 81.3 |

| Compound | viability at 28.5 h, 10 µM [%] |
| --- | --- |
| Cc1cccc(C2(O)CCN(CC(O)c3ccc(F)cc3)CC2)c1 (stereo not shown) [CBK282504] | 96.6 |
| CCc1[nH]c2ccc(C(=O)NCCn3ccnc3C)cc2c1C [CBK282505] | 96.4 |
| Cc1cccc(C2(O)CCN(C(=O)CCCc3ccncc3)CC2)c1 [CBK282506] | 111 |
| Cn1c(CCC(=O)Nc2c[nH]c3ccccc23)nc2ccccc21 [CBK282507] | 85.9 |
| CCOC(=O)C(C)NC(=O)c1ccc2nc(C)sc2c1 (stereo not shown) [CBK282508] | 85.5 |
| Cc1c(C(=O)NCC[S+](C)[O-])oc2c(C)cccc12 (stereo not shown) [CBK282511] | 88.8 |
| Cc1nn(-c2cccc(C(=O)NC3CCCOC3)c2)c(C)c1Cl (stereo not shown) [CBK282512] | 83.6 |
| COc1ccccc1CCCNC(=O)c1csc(C(C)=O)c1 [CBK282513] | 98.8 |
| CC(=O)c1cc(C(=O)NC(c2ccccc2)c2cccnc2)cs1 (stereo not shown) [CBK282514] | 125 |
| COc1ccccc1CC(C)NC(=O)c1csc(C(C)=O)c1 (stereo not shown) [CBK282517] | 114 |
| Cc1ccn(CCNC(=O)c2ccc3c(C)c(C)[nH]c3c2)n1 [CBK282519] | 101 |
| CCc1nc2cc(NC(=O)c3csc(C(C)=O)c3)ccc2n1C [CBK282522] | 105 |
| Cc1ccc(C)c2c(C)c(C(=O)N3CCC(O)C(C)C3)[nH]c12 (stereo not shown) [CBK282527] | 97.4 |
| CCOc1ccc2[nH]c(C(=O)NC3CCCOC3)c(C)c2c1 (stereo not shown) [CBK282529] | 113 |
| CCOc1ccc2[nH]c(C(=O)NC3CCCN(C)C3)c(C)c2c1 (stereo not shown) [CBK282530] | 109 |
| CC(=O)c1cc(C(=O)N2CCC(O)(c3cccc(C)c3)CC2)cs1 [CBK282531] | 92.8 |
| Cc1n[nH]c(C)c1CNC(=O)c1[nH]c2c(Cl)cccc2c1C [CBK282534] | 96 |
| CC(C)c1cc(C(=O)NC(c2ccccc2)c2ccnn2C)n(C)n1 (stereo not shown) [CBK282535] | 102 |
| CN(Cc1cccc2ncccc12)C(=O)c1cc(C2CC2)nn1C [CBK282537] | 108 |
| CC1(C)CC(N(Cc2ccc(F)cc2)Cc2c[nH]cn2)CC(C)(C)N1 [CBK282540] | 102 |
| COc1ccc2cc(C(=O)NC3CCCN(C)C3)n(C)c2c1 (stereo not shown) [CBK282541] | 85.1 |
| CCCN1CCC(CNC(=O)c2cc3ccc(OC)cc3n2C)CC1 [CBK282542] | 99.9 |
| O=C1CN(C(=O)Cn2c(-c3cccs3)cc3cccnc32)CCN1 [CBK282543] | 100 |
| COc1ccc2cc(C(=O)NCCn3ccnc3C)n(C)c2c1 [CBK282544] | 94.1 |

| Compound | viability at 28.5 h, 10 µM [%] |
| --- | --- |
| COCC(=O)NC1CCN(CC2(c3cccc(F)c3)CCCC2)CC1 [CBK282546] | 108 |
| CN1CCCC(NC(=O)Cn2nc(C(F)(F)F)c3c2CCCC3)C1 (stereo not shown) [CBK282548] | 101 |
| Cc1[nH]c2c(C(=O)NCCCC3CCOC3)cccc2c1C (stereo not shown) [CBK282551] | 84.1 |
| O=C(Cn1c(-c2cccs2)cc2cccnc21)NC1CC1 [CBK282552] | 101 |
| O=C(Cn1c(-c2cccs2)cc2cccnc21)NCC1CC1 [CBK282553] | 106 |
| CN(C)CCNC(=O)Cn1c(-c2cccs2)cc2cccnc21 [CBK282555] | 92.6 |
| COCCCNC(=O)Cn1c(-c2cccs2)cc2cccnc21 [CBK282559] | 87.2 |
| Cc1nn(C(C)C)c(C)c1CN1CCN(C2CCCCC2)C(=O)C1 [CBK282562] | 109 |
| C[S+]([O-])CCNC(=O)c1cc(-c2cccs2)no1 (stereo not shown) [CBK282563] | 84.5 |
| CN1CCC(CNC(=O)Cn2ccc3ccc(F)cc32)(N(C)C)CC1 [CBK282569] | 107 |
| O=C(Cn1ccc2ccc(F)cc21)Nc1cccc(-n2cnnc2)c1 [CBK282570] | 111 |
| CC(=O)c1csc(NC(=O)Cn2ccc3ccc(F)cc32)n1 [CBK282572] | 90.5 |
| CCCN1CCC(CNC(=O)Cn2ccc3ccc(F)cc32)CC1 [CBK282573] | 88 |
| C=CCC1(CC=C)CCN1C(=O)c1cc(-c2c(C)nn(C)c2C)n[nH]1 [CBK282575] | 82.2 |
| Cc1cc2occ(CC(=O)NCc3cc(C4CC4)[nH]n3)c2cc1C [CBK282576] | 87.1 |
| CC1(C)CC(N(Cc2c[nH]cn2)Cc2ccccc2F)CC(C)(C)N1 [CBK282579] | 92.9 |
| C=Cn1cc(CN2CCC(O)(c3ccccc3C)CC2)c(C)n1 [CBK282580] | 93.7 |
| C=CCn1cc(CN2CCC(O)(c3ccccc3C)CC2)c(C)n1 [CBK282581] | 86.5 |
| C=Cn1ncc(CN2CCC(O)(c3ccccc3C)CC2)c1C [CBK282582] | 88.6 |
| O=C(O)CCn1c(-c2ccc(F)cc2)cc2cccnc21 [CBK282583] | 84.4 |
| CCc1cccc2c(CC(=O)NC3CCCOC3)c(C)[nH]c12 (stereo not shown) [CBK282584] | 105 |
| C=CCOc1ccc(Cl)cc1C(=O)NCc1c(C)n[nH]c1C [CBK282587] | 82.6 |
| CC(=O)NC1CCN(CC2(c3ccccc3F)CCCC2)CC1 [CBK282591] | 86.7 |
| C=Cn1cc(CN2CCCN(Cc3cccc(F)c3)CC2)c(C)n1 [CBK282594] | 98.7 |

| Compound | viability at 28.5 h, 10 µM [%] |
| --- | --- |
| COc1ccccc1CC(C)NC(=O)c1ccnn1C(C)C (stereo not shown) [CBK282595] | 86.9 |
| CCOc1cc(CCC(=O)NC(C)c2ccccc2)on1 (stereo not shown) [CBK282597] | 82.3 |
| Fc1ccc([C@@H]2COC[C@H]2NCc2ccsc2)cc1 [CBK282598] | 100 |
| Cc1oc2ccc(O)cc2c1C(=O)NC(C)(C)CN1CCCC(C)C1 (stereo not shown) [CBK282601] | 105 |
| CCN1CCCC1CN(Cc1cccs1)CC1CCOC1 (stereo not shown) [CBK282602] | 97.1 |
| CCN1CCCC1CN(Cc1cccs1)Cc1cnc(C)n1C (stereo not shown) [CBK282603] | 91.5 |
| c1ccc(CN2CCC3(CC2)CNCc2ccccc2O3)cc1 [CBK282605] | 88.4 |
| Cc1ccc(C2(O)CCN(CCNC(=O)C3CCCC3)CC2)cc1 [CBK282606] | 93.1 |
| Cc1ccc(C2(O)CCN(CCNC(=O)C3CC3C)CC2)cc1 (stereo not shown) [CBK282607] | 83.9 |
| Cc1cc2occ(CC(=O)NC3CCCN(C)C3)c2cc1C (stereo not shown) [CBK282611] | 93.1 |
| Cc1nc(C)n(CCNC(=O)Cc2coc3cc(C)c(C)cc23)n1 [CBK282613] | 90.7 |
| O=C(NCCCc1ccccn1)c1ccnc2ccc(Cl)cc12 [CBK282618] | 92.4 |
| O=C(Cn1c(-c2cccs2)cc2cccnc21)N1CCCCC1 [CBK282619] | 98.1 |
| O=C(CCn1c(-c2ccncc2)cc2cccnc21)NC1CCCCC1 [CBK282621] | 87.8 |
| O=C(CCn1c(-c2cccnc2)cc2cccnc21)NC1CC1 [CBK282622] | 95.9 |
| Cc1cc2cc(C(=O)NCC3CCCN(C(C)C)C3)ccc2o1 (stereo not shown) [CBK282625] | 105 |
| Cc1ccc(C2(CN3CCC(NC(=O)CO)CC3)CCCC2)cc1 [CBK282628] | 88.5 |
| CCc1n[nH]c(C(=O)NCC(c2ccc(F)cc2)N2CCCC2)c1C (stereo not shown) [CBK282630] | 85.8 |
| O=C(CCN1Cc2ccccc2C1=O)NCCN1CCc2ccccc21 [CBK282632] | 97.5 |
| Cc1cccc(-c2noc(C)c2C(=O)NCCn2ccnc2C)c1 [CBK282633] | 107 |
| CN1CCC2(CC1)CC(NC(=O)C1CCCCC1)c1ccccc1O2 (stereo not shown) [CBK282635] | 91.6 |
| COc1ccccc1CCCNC(=O)c1ccc(=O)n(C)c1 [CBK282636] | 82.7 |

— article PMC12040169 (PLOS Biology, 2025)
